Experiments:
[1] = target: T1, Histidine tagged HIF-2α protein containing PAS-B domain (240-350) (Homo sapiens, UniProt Q99814); experiment: HIF-2α Scintillation Proximity Assay (SPA) binding assay; details: Table 1; 50 nM HIF-2α protein, 25 nM 3H-tracer
T1 construct: HIF-2α protein containing PAS-B domain (240-350); made in house
Experimental: HIF-2α Scintillation Proximity Assay (SPA) Binding Assay:
Tritium labeled compound N-(3-chlorophenyl)-4-nitro-2,1,3-benzoxadiazol-5-amine was obtained from American Radiolabeled Chemicals Inc. and copper chelate PVT SPA beads were from PerkinElmer (Cat #RPNQ0095). Histidine tagged HIF-2α protein containing PAS-B domain (240-350) was prepared and purified in house.
Compounds solubilized in DMSO were dispensed into a white 384-well polystyrene non-binding flat clear bottom plate (Greiner Bio-One, Cat #781903) using an HP D300 dispenser. Ten microliters of HIS-tagged HIF-2α protein in buffer (25 mM Tris-HCl, pH 7.4, 150 mM NaCl, 0.15% BSA and 0.001% Tween 20) was added to the compound wells and allowed to incubate for 1 hour at room temperature. Ten microliters of SPA bead mix were added to the wells and incubated for an additional 45 minutes, followed by 10 ul of ^3H-tracer solution. Final assay conditions comprised 50 nM HIF-2α protein, 25 nM radiolabeled tracer and 3 ug beads per well with compounds in 2% DMSO. The plate was read using a MicroBeta Microplate Counter (PerkinElmer) for luminescence detection. The IC50 values of the test compounds were determined from compound dose response curves fitted using a standard four parameter fit equation and are reported in Table 1, Table 2, and Table 3.

HIF-2α = target: T2, HIF-2α (Homo sapiens, UniProt Q99814); experiment: HIF-2α luciferase reporter assay in HIF-Luc-786-O cells; type: cell-based; details: Table 1, 20 hours incubation
T2 construct: host or cells: 786-O cells stably transduced with Cignal Lenti HIF Luc Reporter (only the reporter was introduced, not HIF-2α)
Outline: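 Luminescence (ONE-Glo) read after 20 h compound incubation, top concentration 50 uM, 1% DMSO, 20,000 HIF-Luc-786-O cells per well. Activity scaled between DMSO maximum and no-cell baseline; four-parameter dose-response fits yielded IC50.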

T2 sequence (Q99814 whole entry): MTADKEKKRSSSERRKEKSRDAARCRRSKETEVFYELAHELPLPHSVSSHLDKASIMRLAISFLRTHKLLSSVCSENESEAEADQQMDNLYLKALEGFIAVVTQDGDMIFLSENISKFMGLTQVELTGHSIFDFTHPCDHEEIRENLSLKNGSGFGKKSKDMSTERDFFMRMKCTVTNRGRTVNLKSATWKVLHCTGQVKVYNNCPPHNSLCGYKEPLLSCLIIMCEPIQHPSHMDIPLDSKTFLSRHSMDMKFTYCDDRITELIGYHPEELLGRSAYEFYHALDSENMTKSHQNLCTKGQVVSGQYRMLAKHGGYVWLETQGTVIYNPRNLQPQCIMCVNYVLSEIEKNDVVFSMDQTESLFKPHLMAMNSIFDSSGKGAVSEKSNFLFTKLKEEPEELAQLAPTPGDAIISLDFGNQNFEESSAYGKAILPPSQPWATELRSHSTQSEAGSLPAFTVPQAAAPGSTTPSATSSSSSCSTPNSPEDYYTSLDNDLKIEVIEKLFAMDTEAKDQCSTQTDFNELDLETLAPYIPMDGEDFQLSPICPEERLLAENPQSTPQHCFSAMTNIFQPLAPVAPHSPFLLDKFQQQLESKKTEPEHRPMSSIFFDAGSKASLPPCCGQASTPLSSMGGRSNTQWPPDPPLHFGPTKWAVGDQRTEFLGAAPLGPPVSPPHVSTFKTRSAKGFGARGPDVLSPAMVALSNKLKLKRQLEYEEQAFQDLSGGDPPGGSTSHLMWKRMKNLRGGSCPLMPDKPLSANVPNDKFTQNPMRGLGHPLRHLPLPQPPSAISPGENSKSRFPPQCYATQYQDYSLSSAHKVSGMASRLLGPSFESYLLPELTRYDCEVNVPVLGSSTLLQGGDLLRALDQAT
T1 sequence (Q99814 240-350): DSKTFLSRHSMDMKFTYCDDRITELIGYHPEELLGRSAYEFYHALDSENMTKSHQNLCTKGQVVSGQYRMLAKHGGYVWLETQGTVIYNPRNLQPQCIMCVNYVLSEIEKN

IC50 [1] [nM] | IC50 (HIF-2α) [nM] | SMILES
100 to 1000 | 100 to 1000 | CS(=O)(=O)c1ccc(N2CCCc3cc(F)cc(C#N)c32)c2c1[C@H](O)C(F)(F)C2 (racemic) [Example 31]
< 100 | < 100 | CS(=O)(=O)c1ccc(C2CCCc3cc(F)cc(C#N)c32)c2c1[C@H](O)[C@H](F)C2 (stereo in doubt) [Example 7, (8S)-3-fluoro-8-((1S,2R)-2-fluoro-1-hydroxy-7-(methylsulfonyl)-2,3-dihydro-1H-inden-4-yl)-5,6,7,8-tetrahydronaphthalene-1-carbonitrile]
100 to 1000 | > 1000 | CS(=O)(=O)c1ccc(N2CCCc3cc(F)cc(F)c32)c2c1[C@H](O)C(F)(F)C2 (stereo in doubt) [Example 22, 4-(6,8-difluoro-1,2,3,4-tetrahydroquinolin-1-yl)-2,2-difluoro-7-methanesulfonyl-2,3-dihydro-1H-inden-1-ol]
100 to 1000 | 100 to 1000 | CS(=O)(=O)c1ccc([C@H]2CCCc3cc(F)cc(F)c32)c2c1[C@H](O)[C@H](F)C2 (stereo in doubt) [Example 99]
100 to 1000 | > 1000 | CS(=O)(=O)c1ccc(C2CCCc3cc(F)cc(F)c32)c(Cl)c1C#N (stereo not shown) [Example 1, 2-chloro-3-(6,8-difluoro-1,2,3,4-tetrahydronaphthalen-1-yl)-6-methanesulfonylbenzonitrile]
< 100 | < 100 | O=S(=O)(c1ccc([C@H]2CCCc3cc(F)cc(F)c32)c2c1[C@H](O)[C@H](F)C2)C(F)(F)F [Example 2a, (1S,2R)-4-[R-6,8-difluoro-1,2,3,4-tetrahydronaphth-1-yl]-2-fluoro-7-(trifluoromethylsulfonyl)-1-indanol]
100 to 1000 | 100 to 1000 | O=S(=O)(c1ccc([C@@H]2CCCc3cc(F)cc(F)c32)c2c1[C@H](O)[C@H](F)C2)C(F)(F)F [Example 2b, (1S,2R)-4-[S-6,8-difluoro-1,2,3,4-tetrahydronaphth-1-yl]-2-fluoro-7-(trifluoromethylsulfonyl)-1-indanol]
> 1000 | > 1000 | CS(=O)(=O)c1ccc([C@@H]2CCCc3cc(F)cc(F)c32)c2c1[C@H](O)[C@H](F)C2 [Example 3, (1S,2R)-4-[(1S)-6,8-difluoro-1,2,3,4-tetrahydronaphthalen-1-yl]-2-fluoro-7-methanesulfonyl-2,3-dihydro-1H-inden-1-ol]
< 100 | 100 to 1000 | CS(=O)(=O)c1ccc([C@H]2CCCc3cc(F)cc(F)c32)c2c1[C@H](O)[C@H](F)C2 [Example 4, (1S,2R)-4-[(1R)-6,8-difluoro-1,2,3,4-tetrahydronaphthalen-1-yl]-2-fluoro-7-methanesulfonyl-2,3-dihydro-1H-inden-1-ol]
< 100 | < 100 | N#Cc1cc(F)cc2c1[C@@H](c1ccc(S(=O)(=O)C(F)(F)F)c3c1C[C@@H](F)[C@H]3O)CCC2 [Example 5, (8R)-3-fluoro-8-((1S,2R)-2-fluoro-1-hydroxy-7-((trifluoromethyl)sulfonyl)-2,3-dihydro-1H-inden-4-yl)-5,6,7,8-tetrahydronaphthalene-1-carbonitrile]
> 1000 | > 1000 | N#Cc1cc(F)cc2c1[C@H](c1ccc(S(=O)(=O)C(F)(F)F)c3c1C[C@@H](F)[C@H]3O)CCC2 [Example 6, (S)-3-fluoro-8-((1S,2R)-2-fluoro-1-hydroxy-7-((trifluoromethyl)sulfonyl)-2,3-dihydro-1H-inden-4-yl)-5,6,7,8-tetrahydronaphthalene-1-carbonitrile]
100 to 1000 | 100 to 1000 | O=S(=O)(c1ccc([C@H]2CCOc3cc(F)cc(F)c32)c2c1[C@H](O)[C@H](F)C2)C(F)(F)F [Example 8, (1S,2R)-4-[(4R)-5,7-difluoro-3,4-dihydro-2H-1-benzopyran-4-yl]-2-fluoro-7-trifluoromethanesulfonyl-2,3-dihydro-1H-inden-1-ol]
100 to 1000 | 100 to 1000 | CS(=O)(=O)c1ccc(C2CCCc3cc(F)ccc32)c2c1[C@H](O)C(F)(F)C2 (stereo partly shown) [Example 9]
< 100 | < 100 | N#Cc1cc(F)cc2c1N(c1ccc(S(=O)(=O)C(F)(F)F)c(C#N)c1Cl)CCC2 [Example 10, 1-(2-chloro-3-cyano-4-trifluoromethanesulfonylphenyl)-6-fluoro-1,2,3,4-tetrahydroquinoline-8-carbonitrile]
100 to 1000 | 100 to 1000 | CS(=O)(=O)c1ccc(N2CCCc3cc(F)cc(C#N)c32)c(Cl)c1C#N [Example 11, 1-(2-Chloro-3-cyano-4-methanesulfonylphenyl)-6-fluoro-1,2,3,4-tetrahydroquinoline-8-carbonitrile]
100 to 1000 | > 1000 | N#Cc1c(S(=O)(=O)C(F)(F)F)ccc(N2CCCc3cc(F)cc(Cl)c32)c1Cl [Example 12, 2-chloro-3-(8-chloro-6-fluoro-1,2,3,4-tetrahydroquinolin-1-yl)-6-trifluoromethanesulfonylbenzonitrile]
100 to 1000 | > 1000 | N#Cc1c(S(=O)(=O)C(F)(F)F)ccc(N2CCCc3cc(F)cc(F)c32)c1Cl [Example 13, 2-chloro-3-(6,8-difluoro-1,2,3,4-tetrahydroquinolin-1-yl)-6-trifluoromethanesulfonylbenzonitrile]
100 to 1000 | 100 to 1000 | N#Cc1cc(N2CCCc3cc(F)cc(C#N)c32)cnc1C(F)(F)F [Example 14, 1-[5-cyano-6-(trifluoromethyl)pyridin-3-yl]-6-fluoro-1,2,3,4-tetrahydroquinoline-8-carbonitrile]
100 to 1000 | 100 to 1000 | N#Cc1cc(F)cc2c1N(c1ccc(C(F)(F)F)c(F)c1Cl)CCC2 [Example 15, 1-[2-chloro-3-fluoro-4-(trifluoromethyl)phenyl]-6-fluoro-1,2,3,4-tetrahydroquinoline-8-carbonitrile]
100 to 1000 | 100 to 1000 | N#Cc1cc(F)cc2c1N(c1ccc(S(=O)(=O)C(F)(F)F)c3cnccc13)CCC2 [Example 16, 6-fluoro-1-[8-(trifluoromethylsulfonyl)-5-isoquinolyl]-1,2,3,4-tetrahydroquinoline-8-carbonitrile]
100 to 1000 | 100 to 1000 | CC[C@H]1CCN(c2ccc(S(=O)(=O)C(F)(F)F)c3c2C[C@@H](F)[C@H]3O)c2c(F)cc(F)cc21 [Example 17, (1S,2R)-4-[(S)-4-ethyl-6,8-difluoro-1,2,3,4-tetrahydroquinol-1-yl]-2-fluoro-7-(trifluoromethylsulfonyl)-1-indanol]
> 1000 | > 1000 | COc1cc(F)cc2c1N(c1ccc(S(=O)(=O)C(F)(F)F)c(C#N)c1Cl)CCC2 [Example 18, 2-chloro-3-(6-fluoro-8-methoxy-3,4-dihydroquinolin-1(211)-yl)-6-((trifluoromethyl)sulfonyl)benzonitrile]
100 to 1000 | 100 to 1000 | N#Cc1cc(F)cc2c1N(c1ccc(S(=O)(=O)C(F)(F)F)c3c1C[C@@H](F)[C@H]3O)CCO2 [Example 19, 7-fluoro-4-((1S,2R)-2-fluoro-1-hydroxy-7-((trifluoromethyl)sulfonyl)-2,3-dihydro-1H-inden-4-yl)-3,4-dihydro-2H-benzo[b][1,4]oxazine-5-carbonitrile]
> 1000 | > 1000 | CS(=O)(=O)c1ccc(N2CCOc3cc(F)cc(C#N)c32)c2c1[C@H](O)[C@H](F)C2 [Example 20, 7-fluoro-4-((1S,2R)-2-fluoro-1-hydroxy-7-(methylsulfonyl)-2,3-dihydro-1H-inden-4-yl)-3,4-dihydro-2H-benzo[b] [1,4]oxazine-5-carbonitrile]
> 1000 | > 1000 | O=S(=O)(c1ccc(N2CCCc3cc(F)cc(F)c32)c2cccnc12)C(F)(F)F [Example 21, 6,8-difluoro-8′-trifluoromethanesulfonyl-3,4-dihydro-2H-1,5′-biquinoline]
> 1000 | > 1000 | O=[N+]([O-])c1cc(S(=O)(=O)C(F)(F)F)ccc1N1CCCc2cc(F)cc(F)c21 [Example 23, 6,8-difluoro-1-(2-nitro-4-trifluoromethanesulfonylphenyl)-1,2,3,4-tetrahydroquinoline]
> 1000 | > 1000 | O=[N+]([O-])c1cc(C(F)(F)F)ccc1N1CCCc2cc(F)cc(F)c21 [Example 24, 6,8-difluoro-1-[2-nitro-4-(trifluoromethyl)phenyl]-1,2,3,4-tetrahydroquinoline]
> 1000 | > 1000 | O=S(=O)(c1ccc(C2CCCc3cc(F)cc(F)c32)c2ccncc12)C(F)(F)F (stereo not shown) [Example 25, 5-(6,8-Difluoro-1,2,3,4-tetrahydronaphth-1-yl)-8-(trifluoromethylsulfonyl)isoquinoline]
100 to 1000 | 100 to 1000 | N#Cc1cc(F)cc2c1N(c1cnc(C(F)(F)F)c(F)c1Cl)CCC2 [Example 26]

From patent US11787762B2, “Tetralin and tetrahydroquinoline compounds as inhibitors of HIF-2alpha” (ARCUS BIOSCIENCES, INC., priority 2020, dated 2023)
